The record followed here is patent US20260209211A1, “CYCLIN K DEGRADER AND USE THEREOF” (ADLAI NORTYE BIOPHARMA CO., LTD., priority 2022, published 2026).

Common to all, as to type: cell-based
Test [1] deals with HGC27 (Human Gastric Cancer Cell). The test can be described thus: Bioactivity assay for HGC27 cell growth inhibition (CellTiter-Glo). Conditions: read-out: HGC27 CTG IC50. Here is the method:
This detection method is used to evaluate the biological activity of the compounds of the present disclosure at the cellular level.
(§1) HGC27 cells (purchased from the Chinese Academy of Sciences) were harvested, resuspended in complete medium and adjusted to a cell density of 0.2×10^6 cells per ml. The cell suspension was added to a 96-well plate at a volume of 100 μL per well and cultured overnight in a 37° C., 5% CO2 incubator. Prepare the test compound and add it to the cell plate so that the highest concentration of the compound is 10 μM. Set 8 concentration points according to 3-fold dilution. At the same time, 100% inhibition control wells were set, that is, wells with no cells but only an equal volume of complete culture medium; and 0% inhibition control wells, that is, wells with cells added with 0.1% DMSO. The cell plate was cultured at 37° C. and 5% CO2 for 24 hours. Remove the cell culture plate and add 25 μl CellTiter-Glo® Luminescent Cell Viability Reagent (promega cat #G7573) to each well. Incubate in the dark for 10 minutes and then transfer 100 μL to a white plate and use Molecular Devices SpectraMax i3 to detect chemiluminescence. The inhibition rate was calculated using the following formula for data processing: compound inhibition rate=(0% inhibition control well signal−compound treatment well signal)/(0% inhibition control well signal−100% inhibition control well signal)*100%. The calculated data were fitted with four parameters using GraphPad Prism software and the corresponding IC50 was calculated.

The target in a further test is T1, Cyclin K (CCNK) (Homo sapiens, UniProt O75909+Q9NYV4).
T1 construct: host or cells: HEK293
The test is described as follows: Western blot analysis of Cyclin K (CCNK) degradation in HEK293 cells. The following applies: 6 h, different concentrations, compared with the control (FIG. 1). Here is the method: HEK293 cells (ATCC, cat #CRL-1573) were harvested and the cell density was adjusted to 1×10^6 cells per ml. 1 ml of cell suspension was plated into each well of a 6-well plate and cultured overnight. The compound stock solution was taken and diluted with DMSO to the appropriate concentration. The diluted compounds were added to the cell wells at a ratio of 1:1000 using culture medium to ensure that the DMSO concentration in each well was 0.1%. Negative control wells were also set up, which contained complete medium containing 0.1% DMSO. After treatment with the compounds at the concentrations indicated in the figures and at different times, total cell protein was extracted using RIPA cell lysis buffer (Beyotime, cat #P0013B) containing PMSF. After protein quantification using the BCA protein quantification kit (Thermo Fisher, cat #A53225), each sample was loaded with 40 μg for subsequent SDS-PAGE and western blot experiments. The specific conditions are as follows: after running the gel at a constant voltage of 120 V for 90 minutes, transfer the membrane at a constant current of 320 mA for 60 minutes. Incubate the antibodies according to the recommended dilution ratio and incubation time. The antibody information used in the experiment is as follows: Anti-GAPDH antibody (abcam, cat #ab9485), Anti-Cyclin K antibody (abcam, cat #ab85854), Goat anti-Rabbit IgG (H+L) Cross-Adsorbed Secondary Antibody, HRP (invitrogen, cat #G-21234). ECL luminescent solution (Thermo Fisher, cat #32209) was used for color development. The final results were analyzed using a gel imaging system.
According to the above detection method, some compounds described in the present disclosure were evaluated.

Test [2] has as its system NCI-N87 (Human Gastric Cancer Cell). The test is described as follows: Bioactivity detection of NCI-N87 cell growth inhibition (CellTiter-Glo). Conditions: NCI-N87 cells, 72 hours, highest concentration 10 μM, read-out: N87 CTG IC50. Here is the method: This detection method is used to evaluate the biological activity of the compounds described in this disclosure at the cellular level.
as §1, with “NCI-N87” for “HGC27”, “0.1×10^6” for “0.2×10^6”, “72” for “24”, “CellTiter-Glo” for “CellTiter-Glo®”, “signal)[…].” for “signal)*100%.”
(In general: ATP-based viability assays read luminescence as a measure of living cells.)

Where [3] appears, read: HGC-27, HGC27 cells, 24 hours, CellTiter-Glo, highest concentration 10 μM.

Molecules are shown by their SMILES. Read-outs that look alike come from different tables or passages of the source.

T1 sequence (O75909 whole entry): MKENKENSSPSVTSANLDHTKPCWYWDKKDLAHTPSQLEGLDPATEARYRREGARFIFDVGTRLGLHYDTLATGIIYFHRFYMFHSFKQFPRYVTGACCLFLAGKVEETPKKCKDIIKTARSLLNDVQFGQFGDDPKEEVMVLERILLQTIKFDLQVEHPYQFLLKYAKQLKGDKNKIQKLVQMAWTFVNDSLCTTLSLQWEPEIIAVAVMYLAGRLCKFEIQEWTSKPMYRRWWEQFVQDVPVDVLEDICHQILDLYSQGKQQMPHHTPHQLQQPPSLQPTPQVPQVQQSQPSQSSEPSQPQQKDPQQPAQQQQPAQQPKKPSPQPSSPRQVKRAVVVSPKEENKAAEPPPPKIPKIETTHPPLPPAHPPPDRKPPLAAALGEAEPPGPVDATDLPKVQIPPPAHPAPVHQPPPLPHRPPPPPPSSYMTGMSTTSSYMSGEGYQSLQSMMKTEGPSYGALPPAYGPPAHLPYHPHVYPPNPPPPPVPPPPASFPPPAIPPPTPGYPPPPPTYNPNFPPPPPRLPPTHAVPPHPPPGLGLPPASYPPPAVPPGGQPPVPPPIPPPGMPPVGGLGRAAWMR
T1 sequence (Q9NYV4 whole entry): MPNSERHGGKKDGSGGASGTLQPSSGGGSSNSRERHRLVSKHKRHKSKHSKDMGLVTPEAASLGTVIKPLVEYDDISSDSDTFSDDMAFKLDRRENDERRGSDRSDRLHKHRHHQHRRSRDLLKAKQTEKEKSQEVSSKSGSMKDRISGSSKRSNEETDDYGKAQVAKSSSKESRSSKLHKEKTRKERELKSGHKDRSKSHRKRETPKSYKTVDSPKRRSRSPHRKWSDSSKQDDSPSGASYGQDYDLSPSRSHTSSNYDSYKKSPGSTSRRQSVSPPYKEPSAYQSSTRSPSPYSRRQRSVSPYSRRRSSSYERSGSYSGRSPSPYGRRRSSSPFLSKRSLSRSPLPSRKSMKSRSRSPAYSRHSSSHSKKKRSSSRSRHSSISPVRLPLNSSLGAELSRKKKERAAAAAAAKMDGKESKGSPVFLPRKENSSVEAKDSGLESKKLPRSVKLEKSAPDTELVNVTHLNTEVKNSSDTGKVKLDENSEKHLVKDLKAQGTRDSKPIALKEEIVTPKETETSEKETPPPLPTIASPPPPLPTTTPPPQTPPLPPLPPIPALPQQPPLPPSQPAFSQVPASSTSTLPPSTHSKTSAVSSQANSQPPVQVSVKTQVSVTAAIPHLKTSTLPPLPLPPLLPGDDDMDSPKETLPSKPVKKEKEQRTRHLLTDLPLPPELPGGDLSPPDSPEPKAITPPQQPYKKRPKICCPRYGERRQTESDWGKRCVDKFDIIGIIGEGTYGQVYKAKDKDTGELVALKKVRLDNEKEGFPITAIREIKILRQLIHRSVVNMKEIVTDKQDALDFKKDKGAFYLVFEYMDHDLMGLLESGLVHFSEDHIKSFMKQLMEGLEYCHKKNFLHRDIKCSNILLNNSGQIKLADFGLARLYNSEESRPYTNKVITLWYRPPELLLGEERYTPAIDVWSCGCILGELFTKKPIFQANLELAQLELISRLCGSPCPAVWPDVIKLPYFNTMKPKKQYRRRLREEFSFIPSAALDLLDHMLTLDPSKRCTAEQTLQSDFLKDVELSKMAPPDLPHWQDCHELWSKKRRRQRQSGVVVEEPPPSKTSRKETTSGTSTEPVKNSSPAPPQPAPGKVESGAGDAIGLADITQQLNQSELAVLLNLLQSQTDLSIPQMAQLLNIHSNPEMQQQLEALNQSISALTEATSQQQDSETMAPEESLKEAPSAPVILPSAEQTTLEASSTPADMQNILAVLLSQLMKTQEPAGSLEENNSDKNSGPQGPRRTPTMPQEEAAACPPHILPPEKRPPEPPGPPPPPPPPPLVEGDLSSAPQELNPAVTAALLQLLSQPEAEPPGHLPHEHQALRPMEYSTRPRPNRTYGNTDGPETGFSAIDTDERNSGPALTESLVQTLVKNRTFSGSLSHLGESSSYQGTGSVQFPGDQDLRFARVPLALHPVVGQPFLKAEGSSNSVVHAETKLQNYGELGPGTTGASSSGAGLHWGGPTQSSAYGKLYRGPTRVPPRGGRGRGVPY

Regarding `C[C@@H](O)[C@@H](C)Oc1nc(NCc2ccc3c(c2)[nH]c2c(CO)ccnc23)ncc1C(F)(F)F` [Compound 12], the figures for the IC50 in test [1] (setting [3]) and in test [2] were 25 nM and 7.5 nM, respectively. The “degradation of Cyclin K (western blot)” value on Cyclin K (CCNK) is “significantly induce the degradation of Cyclin K”.
For `CC[C@@H](Nc1nc(NCc2ccc3c(c2)[nH]c2c(CO)ccnc23)ncc1C(F)(F)F)C(N)=O` [Compound 17], in that order: 68 nM, 3.1 nM and “significantly induce the degradation of Cyclin K”.
The corresponding values for `C[C@@H](O)[C@@H](C)Nc1nc(NCc2ccc3c(c2)[nH]c2c(CO)ccnc23)ncc1C(F)(F)F` [Compound 18] are 8 nM, less than 1 nM and “significantly induce the degradation of Cyclin K”.
On to `C[C@@H](N)[C@@H](C)Oc1nc(NCc2ccc3c(c2)[nH]c2c(CO)ccnc23)ncc1C(F)(F)F` [Compound 90], for which the IC50 (in general, the concentration that inhibits the measured activity by half) in test [1] (setting [3]) was 4.9 nM; in test [2] it was 6 nM.
For `N#Cc1ccnc2c1[nH]c1cc(CNc3ncc(C(F)(F)F)c(O[C@@H]4CNC[C@@H]4O)n3)ccc12` [Compound 91], in that order: 14 nM and 5.3 nM.
For `Cn1c2cc(CNc3ncc(C(F)(F)F)c(N[C@@H]4CNCC[C@@H]4O)n3)ccc2c2nccc(C#N)c21` [Compound 93], in that order: 17 nM and 4.1 nM.
For `N#Cc1ccnc2c1[nH]c1cc(CNc3ncc(C(F)(F)F)c(N[C@@H]4CN(CCO)CC[C@@H]4O)n3)ccc12` [Compound 94], in that order: 9 nM and 3.7 nM.
Take `C[C@@H](O)[C@H](Nc1nc(NCc2ccc3c(c2)[nH]c2c(C#N)ccnc23)ncc1C(F)(F)F)C(N)=O` [Compound 95]: the IC50 in test [1] (HGC-27, 24 h) worked out at 3 nM; in test [2] it was 8 nM.
As to `COc1ccnc2c1[nH]c1cc(CNc3ncc(C(F)(F)F)c(N[C@@H](C(N)=O)[C@H](C)OC)n3)ccc12` [Compound 97], the IC50 was 43 nM in test [1] (setting [3]) and 6.6 nM in test [2].
For `C[C@@H](O)[C@@H](C)Nc1nc(NCc2ccc3c(c2)[nH]c2c(C#N)ccnc23)ncc1C(F)(F)F` [Compound 98], in that order: 7 nM and 2 nM.
